22 compounds from patent US20230365563A1, “QUINAZOLINE COMPOUND AND APPLICATION THEREOF” (SHANGHAI PHARMACEUTICALS HOLDING CO., LTD., priority 2020, published 2023) can be followed below.

Where a name gives a salt, the structure may show the parent alone. Some results are limits rather than exact numbers.

For the experiment, the target named is T1, KRAS-G12D and SOS1 (Homo sapiens, UniProt P01116, G12D).
T1 construct: purchased
T1 sequence (P01116 1-188 isoform P01116-2 G12D): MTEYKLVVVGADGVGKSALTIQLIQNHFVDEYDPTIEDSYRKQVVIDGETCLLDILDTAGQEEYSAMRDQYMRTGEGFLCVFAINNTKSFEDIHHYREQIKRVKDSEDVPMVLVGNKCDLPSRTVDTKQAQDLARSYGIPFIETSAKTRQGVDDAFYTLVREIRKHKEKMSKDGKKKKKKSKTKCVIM
Description: Inhibition of KRAS-G12D/SOS1 binding (Cisbio binding kit, 665/615 ratio), Effect Embodiment A. The note with it: read-out: GTP-KRAS-G12D:SOS1 IC50. As to the method:
Similarly, the first dilution point of the compound to be tested was its storage solution, and the solution was 3-fold diluted, with 11+0 points of dilution. Echo was used to transfer 0.2 μL gradient diluted solution of the compounds into a 384-well plate, with 2 duplicated wells for each compound, and the final concentration of DMSO was 1%. The solution was centrifuged for 1 min at 1000 rpm/min.
IC50 of the compounds was fitted by Graphpad Prism 8 nonlinear regression equation: […]
The IC50 (half inhibitory concentration) of the compound was obtained by using the following nonlinear fitting formula: […]
Usually IC50 stands for the concentration at which inhibition is half-maximal. For `CCN(C)CCCOc1nc(N2CC3CCC(C2)N3)c2cc(Cl)c(-c3cc(O)cc4ccccc34)c(F)c2n1` (single isomer, unassigned) [Compound 49b, 4-((R or S)-4-((1R,5S)-3,8-diazabicyclo[3.2.1]octan-3-yl)-6-chloro-2-(3-(ethyl(methyl)amino)propoxy)-8-fluoroquinazolin-7-yl)naphthalen-2-ol dicarboxylate], the IC50 is 13.8 µM. For the compound `CN(CCN)c1nc(N2CC(N(C)C)C2)nc2c(F)c(-c3cc(O)cc4ccccc34)c(Cl)cc12` (single isomer, unassigned) [Compound 15b, (S or R)-4-(4((2-aminoethyl) (methyl)-amino)-6-chloro-2-(3-(dimethylamino)azetidin-1-yl)-8-fluoroquinazolin-7-yl)naphthalen-2-ol], the IC50 came to 52.7 µM. For `CN(C)C12CC(c3nc(N4CC5CCC(C4)N5)c4cc(Cl)c(-c5cc(O)cc6ccccc56)c(F)c4n3)(C1)C2` (single isomer, unassigned) [Compound 162a, 4-((S or R)-4-((1R,5S)-3,8-diazabicyclo[3.2.1]octan-3-yl)-6-chloro-2-(3-(dimethylamino)bicyclo[1.1.1]pentan-1-yl)-8-fluoroquinazolin-7-yl)naphthalen-2-ol dihydrochloride], the IC50 was 0.678 µM. As for `CN(C)C1CN(c2nc(N3CC4CCC(C3)N4)c3cc(Cl)c(-c4cccc5ccccc45)c(F)c3n2)C1` (single isomer, unassigned) [Compound 42b, -((R or S)-4-((1R,5S)-3,8-diazabicyclo[3.2.1]octan-3-yl)-6-chloro-8-fluoro-7-(naphthalen-1-yl)quinazolin-2-yl)-N,N-dimethylazetidin-3-amine], the concentration for half-maximal inhibition (IC50) is 6.47 µM. Consider `CN(C)C1CN(c2nc(NCC(=N)N)c3cc(Cl)c(-c4cc(O)cc5ccccc45)c(F)c3n2)C1` (single isomer, unassigned) [Compound 76, (S or R)-2-((6-chloro-2-(3-(dimethylamino)azetidin-1-yl)-8-fluoro-7-(3-hydroxynaphthalen-1-yl)quinazolin-4-yl)amino)acetimidamide diformate], for which the IC50 was found to be 8.96 µM. With `CN(C)C1CN(c2nc(N=S3(=O)CCC(N)CC3)c3cc(Cl)c(-c4cc(O)cc5ccccc45)c(F)c3n2)C1` (single isomer, unassigned) [Compound 72b, (4R or S)-4-amino-1-(((S or R)-6-chloro-2-(3-(dimethylamino)azetidin-1-yl)-8-fluoro-7-(3-hydroxynaphthalen-1-yl)quinazolin-4-yl)imino)hexahydro-1-thiopyran 1-oxide], the half-maximal inhibitory concentration (IC50) amounted to 155 µM. As to `CN(C)C1CN(c2nc(N3CC4CNCC4C3)c3cc(Cl)c(-c4cc(O)cc5ccccc45)c(F)c3n2)C1` (single isomer, unassigned) [Compound 14c, (R or S)-4-(6-chloro-2-(3-(dimethylamino)azetidin-1-yl)-8-fluoro-4-((3aR,6aR or 3aS,6aS)-hexahydro-pyrrolo[3,4-c]pyrrol-2(1H)-yl)quinazolin-7-yl)naphthalen-2-ol], the IC50 amounted to 9.49 µM. With `CN1CCC[C@H]1COc1nc(N2CC3CCC(C2)N3)c2cc(Cl)c(-c3c(F)c(O)cc4ccccc34)c(F)c2n1` (single isomer, unassigned) [Compound 195a, (R or S)-4-(4-((1R,5S)-3,8-diazabicyclo[3.2.1]octan-3-yl)-6-chloro-8-fluoro-2-((S)-1-methylpyrrolidin-2-yl)methoxy)quinazolin-7-yl)-3-fluoronaphthalen-2-ol diformate], the IC50 was found to be 8.77 µM. With `O=S1(=O)CC2CCC(C1)N2CCCOc1nc(N2CC3CCC(C2)N3)c2cc(Cl)c(-c3cc(O)cc4ccccc34)c(F)c2n1` (single isomer, unassigned) [Compound 212, 8-(3-((S or R)-4-((1R,5S)-3,8-diazabicyclo[3.2.1]octan-3-yl)-6-chloro-8-fluoro-7-(3-hydroxynaphthalen-1-yl)quinazolin-2-yl)oxy)propyl)-3-thio-8-azabicyclo[3.2.1]octane-3,3-dioxide formate], the 50% inhibitory concentration (IC50) is 0.556 µM. In the case of `CN(C)CCCn1c(=O)nc(N2CC3CCC(C2)N3)c2cc(Cl)c(-c3cc(O)cc4ccccc34)c(F)c21` (single isomer, unassigned) [Compound 74b, 4-((1R,5S)-3,8-diazabicyclo[3.2.1]octan-3-yl)-6-chloro-1-(3-(dimethylamino)propyl)-8-fluoro-7-((R or S)-3-hydroxynaphthalen-1-yl)quinazolin-2(1H)-one], the half-maximal inhibitory concentration (IC50) is over 200 µM. Regarding `Oc1cc(-c2c(Cl)cc3c(N4CC5CCC(C4)N5)nc(OCCCN4CCCC4)nc3c2F)c2ccccc2c1` (single isomer, unassigned) [Compound 63b, 4-((R or S)-4-((1R,5S)-3,8-diazabicyclo[3.2.1]octan-3-yl)-6-chloro-8-fluoro-2-(3-(pyrrolidin-1-yl)propoxy)quinazolin-7-yl)naphthalen-2-ol], the IC50 was 12.9 µM. Consider `CN(C)C1CN(c2nc(N3CC4CNCC4C3)c3cc(Cl)c(-c4cc(O)cc5ccccc45)c(F)c3n2)C1` (single isomer, unassigned) [Compound 14d, (S or R)-4-(6-chloro-2-(3-(dimethylamino)azetidin-1-yl)-8-fluoro-4-((3aR,6aR or 3aS,6aS)-hexahydro-pyrrolo[3,4-c]pyrrol-2(1H)-yl)quinazolin-7-yl)naphthalen-2-ol], for which the half-inhibitory concentration (IC50) was found to be 56.7 µM. As to `CN(C)CCN(C)c1nc(N2CC(N(C)C)C2)nc2c(F)c(-c3cc(O)cc4ccccc34)c(Cl)cc12` (single isomer, unassigned) [Compound 17a, (R or S)-4-(6-chloro-2-(3-(dimethylamino)azetidin-1-yl)-4-((2-(dimethylamino)ethyl)(methyl)amino)-8-fluoro-quinazolin-7-yl)naphthalen-2-ol], the IC50 worked out at 5.81 µM. Consider `CN(C)C1CN(c2nc(N3CC4CCC(C3)N4)c3cc(Cl)c(-c4cc(O)cc5cccnc45)c(F)c3n2)C1` (single isomer, unassigned) [Compound 45a, 8-((S or R)-4-((1R,5S)-3,8-diazabicyclo[3.2.1]octan-3-yl)-6-chloro-2-(3-(dimethylamino)azetidin-1-yl)-8-fluoroquinazolin-7-yl)quinolin-6-o1], for which the IC50 stood at 1.26 µM. As to `CN(C)C1CN(c2nc(N=S3(=O)CCC(N)CC3)c3cc(Cl)c(-c4cc(O)cc5ccccc45)c(F)c3n2)C1` (single isomer, unassigned) [Compound 72d, (4S or R)-4-amino-1-(((S or R)-6-chloro-2-(3-(dimethylamino)azetidin-1-yl)-8-fluoro-7-(3-hydroxynaphthalen-1-yl)quinazolin-4-yl)imino)hexahydro-1-thiopyran 1-oxide], the IC50 amounted to 176 µM. Turning to `CN(C)C1CN(c2nc(N3CC4(CCNC4)C3)c3cc(Cl)c(-c4cc(O)cc5ccccc45)c(F)c3n2)C1` (single isomer, unassigned) [Compound 8b, (S or R)-4-(6-chloro-2-(3-(dimethylamino)azetidin-1-yl)-8-fluoro-4-(2,6-diazaspiro[3.4]octan-2-yl)quinazolin-7-yl)naphthalen-2-ol], the concentration for half-maximal inhibition (IC50) amounted to 71 µM. With `CC(C)(CCOc1nc(N2CC3CCC(C2)N3)c2cc(Cl)c(-c3cc(O)cc4ccccc34)c(F)c2n1)N1CCCC1` (single isomer, unassigned) [Compound 123, 4-((S or R)-4-((1R,5S)-3,8-diazabicyclo[3.2.1]octan-3-yl)-6-chloro-8-fluoro-2-(3-methyl-3-(pyrrolidin-1-yl)butoxy)quinazolin-7-yl)naphthalen-2-ol dihydrochloride], the 50% inhibitory concentration (IC50) was 0.106 µM. Take `CN(C)C1CN(c2nc(C3CNC3)c3cc(Cl)c(-c4cc(O)cc5ccccc45)c(F)c3n2)C1` (single isomer, unassigned) [Compound 21a, (S or R)-4-(4-(azetidin-3-yl)-6-chloro-2-(3-(dimethylamino)azetidin-1-yl)-8-fluoroquinazolin-7-yl)naphthalen-2-ol bistrifluoroacetate]: the 50% inhibitory concentration (IC50) turned out to be 1.28 µM. With `CN1CCC[C@H]1COc1nc(N2CC3CCC(C2)N3)c2cc(Cl)c(-c3cc(O)c(F)c4ccccc34)c(F)c2n1` (single isomer, unassigned) [Compound 89b, (R or S)-4-(4-((1R,5S)-3,8-diazabicyclo[3.2.1]octan-3-yl)-6-chloro-8-fluoro-2-(S)-1-methylpyrrolidin-2-yl)methoxy)quinazolin-7-yl)-1-fluoronaphthalen-2-ol hydrochloride], the 50% inhibitory concentration (IC50) turned out to be 5.34 µM. For `CN(C)C1CN(c2nc(N3C[C@@H]4CC[C@H]3CN4)c3cc(Cl)c(-c4cc(O)cc5ccccc45)c(F)c3n2)C1` (single isomer, unassigned) [Compound 4b, (S or R)-4-(4-((1S,4S)-2,5-diazabicyclo [2.2.2]octan-2-yl)-6-chloro-2-(3-(dimethylamino)azetidin-1-yl)-8-fluoro-quinazolin-7-yl)naphthalen-2-ol], the 50% inhibitory concentration (IC50) is 4.59 µM. For the compound `CCc1cccc2cc(O)cc(-c3c(F)cc4c(N5CC6CCC(C5)N6)nc(OCCCN5C[C@@H](C)O[C@@H](C)C5)nc4c3F)c12` (single isomer, unassigned) [Compound 283b, (R or S)-4-(4-((1R,5S)-3,8-diazacyclo[3.2.1]octan-3-yl)-2-(3-((2S,6R)-2,6-dimethylmorpholinyl)propoxy)-6,8-difluoroquinazolin-7-yl)-5-ethylnaphthalen-2-ol dihydrochloride], the IC50 is 9.18 µM. As for `CN1CCC[C@H]1C1(Oc2nc(N3CC4CCC(C3)N4)c3cc(Cl)c(-c4cc(O)cc5ccccc45)c(F)c3n2)CC1` (single isomer, unassigned) [Compound 189, 4-((R or S)-4-((1R,5S)-3,8-diazabicyclo[3.2.1]octan-3-yl)-6-chloro-8-fluoro-2-(1-((S)-1-methylpyrrolidin-2-yl)cyclopropoxy)quinazolin-7-yl)naphthalen-2-ol diformate], the IC50 turned out to be 8.32 µM.
